Key:
[1] = tested on: effects of jet lag and sleep deprivation on human beings; assay: Stanford Sleepiness Scale self-report; assay type: in vivo; settings: sublingual NADH 20 mg
Method: (§1) The efficacy of a stabilized, sublingual form of reduced nicotinamide adenine dinucleotide (NADH, available commercially under the name ENADA® from Menuco Corp.) as a treatment for the effects of jet lag and sleep deprivation on human beings was examined. Healthy individuals were treated with NADH on the day following an overnight flight across North America, and the effects of NADH on their cognitive functioning were monitored. Although the sublingual form of NADH was used in these examples, any of the aforementioned forms of NADH could have been employed.
The subjects in these examples were volunteers between 35 and 55 years of age, and were in good general physical health. At a screening visit, subjects were urine tested to screen for the use of illicit drugs and pregnancy. Cognitive screening with the Trail Making Test and Symbol Digit Modalities Test (see M. D. Lezak, Neuropsychological Assessment, 3rd ed., Oxford University Press (1995)) was used to exclude subjects with cognitive function test scores>1 SD below the mean for their age. Subjects were required to be gainfully employed, to have completed 14 years of formal education, and to have none of the following conditions: history of substance abuse, obesity (body mass index>30 kg/m^2), air sickness, pregnancy, nicotine use (within 6-months), mental health disorder (within 1 year), or sleep disorder. In addition, subjects were required to have a normal day/night sleep schedule in their home time zone, and to have an Epworth Sleepiness Scale rating >8 at baseline (“baseline” being the testing in San Diego on the day of the flight) (see E. Hoddes et al., Quantification of Sleepiness: A New Approach, Psychophysiology (1973), 10(4):431-6). Subjects were not permitted to be taking antidepressant medications, CNS stimulants, neuroleptics, Ginseng, Gingko Biloba, melatonin, phosphatylcholine, -acetyl carnatene, or other medications/nutritional supplements reported to enhance cognitive functioning within 90 days of the study. During the study, subjects were not permitted to use caffeine, alcohol or to take any prescription or over-the-counter medications known to enhance or depress CNS functioning.
Subjects arrived at the San Diego, Calif. test site at 1200 hours on the day of the flight. The study protocol was reviewed with the subjects and they were then each issued a laptop computer (IBM Thinkpad Model 760) and familiarized with the tests and measures to be used in the study. At approximately 1500 hours subjects were administered the entire battery of tests to establish their baseline performance (“baseline”). Subjects also received training in the method for taking the sublingual tablets. Subjects were transported to the San Diego Airport and flown to Phoenix, Ariz. where they were shuttled to a conference room at a nearby hotel, provided dinner, and readministered the battery of tests at approximately 2030 hours. Subjects were shuttled back to the airport and boarded a flight to Baltimore, Md. at 2230 hours. Thirty minutes into the flight the subjects were instructed to complete a subset of the battery of tests. Subjects were permitted to sleep after completing the tests. The duration of the flight from Phoenix to Baltimore is approximately 4 hours. Furthermore, there is a 3-hour time difference between San Diego and Baltimore. The local time in Baltimore upon arrival was approximately 0600 hours. After breakfast, subjects were shuttled to the Washington, D.C. test site where they arrived at approximately 0800 hours.
(§2) Sublingual NADH 20 mg (4 tablets of sublingual ENADAlert™ 5 mg) or an equal number of identical placebo tablets were administered by study site personnel to the subjects upon their arrival at the Washington test site. At the test site, subjects' activities were carefully monitored to avoid dehydration, exposure to daylight (subjects were kept indoors) and hunger (they were provided breakfast and lunch, which all subjects ate). […]

[2] = tested on: effects of jet lag and sleep deprivation on human beings; assay: CogScreen Dual Task Test: Tracking Alone (psychomotor functioning); assay type: in vivo; settings: sublingual NADH 20 mg, 31% at baseline
Method: as §1
(§3) The subjects in these examples were volunteers between 35 and 55 years of age, and were in good general physical health. […] In addition, subjects were required to have a normal day/night sleep schedule in their home time zone, and to have an Epworth Sleepiness Scale rating >8 at baseline (“baseline” being the testing in San Diego on the day of the flight) (see E. Hoddes et al., Quantification of Sleepiness: A New Approach, Psychophysiology (1973), 10(4):431-6). […]
(§4) Subjects arrived at the San Diego, Calif. test site at 1200 hours on the day of the flight. […] Subjects were transported to the San Diego Airport and flown to Phoenix, Ariz. where they were shuttled to a conference room at a nearby hotel, provided dinner, and readministered the battery of tests at approximately 2030 hours. […]

[3] = tested on: effects of jet lag and sleep deprivation on human beings; assay: CogScreen Visual Sequence Comparison Test (visual perceptual speed and accuracy); assay type: in vivo; settings: sublingual NADH 20 mg; PM test vs baseline; placebo 1.4; P=0.026
Method: as §1, §3, §4

[4] = tested on: effects of jet lag and sleep deprivation on human beings; assay: Kay Continuous Performance Test (KCPT), sustained attention and vigilance; assay type: in vivo; settings: sublingual NADH 20 mg
Method: as §1
The subjects in these examples were volunteers between 35 and 55 years of age, and were in good general physical health. At a screening visit, subjects were urine tested to screen for the use of illicit drugs and pregnancy. […] In addition, subjects were required to have a normal day/night sleep schedule in their home time zone, and to have an Epworth Sleepiness Scale rating >8 at baseline (“baseline” being the testing in San Diego on the day of the flight) (see E. Hoddes et al., Quantification of Sleepiness: A New Approach, Psychophysiology (1973), 10(4):431-6). […]
as §4, §2

[5] = tested on: effects of jet lag and sleep deprivation on human beings; assay: ANAM Math Test (working memory, math reasoning); assay type: in vivo; settings: sublingual NADH 20 mg
Method: as §1, §3, §4

[6] = tested on: effects of jet lag and sleep deprivation on human beings; assay: CogScreen Matching to Sample Test; assay type: in vivo; settings: sublingual NADH 20 mg; baseline to PM; placebo 1.0; P=0.078
Method: as §1, §3, §4

[7] = tested on: effects of jet lag and sleep deprivation on human beings; assay: ANAM Running Memory Test (vigilance, working memory) after overnight flight; assay type: in vivo; settings: sublingual NADH 20 mg
Method: as §1, §3, §4

[8] = tested on: effects of jet lag and sleep deprivation on human beings; assay: Walter Reed Mood Scale self-report; assay type: in vivo; settings: sublingual NADH 20 mg
Method: as §1, §3, §4

[9] = tested on: effects of jet lag and sleep deprivation on human beings; assay: CogScreen Shifting Attention Test: Instruction Condition (working memory); assay type: in vivo; settings: sublingual NADH 20 mg
Method: as §1, §3, §4

[10] = tested on: effects of jet lag and sleep deprivation on human beings; assay: CCAB Mark Numbers Test (divided attention); assay type: in vivo; settings: sublingual NADH 20 mg
Method: as §1, §3, §4

human beings = assay: Adverse effects (headaches) during the jet lag study; assay type: in vivo; settings: sublingual NADH 20 mg
Method: as §1, §3, §4

Stability at acidic pH = assay type: physicochemical; settings: pHs below 7, as in the human stomach
Source text: Therefore, when used in oral form, these substances must be coated with an acid-stable protective film so that they can survive the stomach environment for subsequent absorption by the intestine. Suitable acid-stable coatings are known in the art and can be applied by a conventional coating process after the active ingredients are formed into a tablet or capsule. Examples of suitable coatings are: cellulose acetate phthalate; polyvinylacetate phthalate; hydroxyl-propyl-methyl cellulose phthalate; methacryllic acid copolymers; fat-wax; shellac; zein; aqua-coating; and surerelease. Another possibility for the coating is a solution of a phthalate and a lack dry substance in isopropanol. An example of a suitable lack dry substance is sold under the name […]™ by Rohm Pharma. Alternatively, a protein coating in an aqueous medium may be applied. However, a sugar-coating should not be used because it will destabilize NADH.

NC(=O)C1=CN([C@@H]2O[C@H](COP(=O)(O)OP(=O)(O)OC[C@H]3O[C@@H](n4cnc5c(N)ncnc54)[C@H](O)[C@@H]3O)[C@@H](O)[C@H]2O)C=CC1 [NADH, reduced nicotinamide adenine dinucleotide]
subjects reporting an increase in sleepiness compared to baseline ([1]; AM test session, placebo 62.5%): 57.1%
subjects with Stanford Sleepiness Scale rating of 1 or 2 ([1]; AM test, 82% at baseline, placebo identical): 35%
subjects with Stanford Sleepiness Scale rating of 3 or more ([1]; AM test, placebo identical): 65%
subjects no longer reporting an increase in sleepiness relative to baseline ([1]; PM test session, placebo 25%): 57.7%
number of subjects with Stanford Sleepiness Scale rating of 1 or 2 ([1]; PM test, 17 subjects, placebo four, p=0.07): eight
number of subjects with Stanford Sleepiness Scale rating of 3 or more ([1]; PM test, 17 subjects, placebo thirteen): nine
subjects reporting no sleepiness ([1]; afternoon test, with 11 additional subjects (n=46), placebo 18%, P<0.02): 48%
subjects with tracking failures ([2]; AM test, placebo 41%): 33%
subjects with tracking failures ([2]; PM test, placebo 29%, P<0.09): 11%
more items correctly completed per minute vs baseline (Visual Sequence Comparison throughput) [3]: 5.4 items per minute
subjects with normal baseline performance who made two or more errors on KCPT ([4]; AM test, 90 min after dosing, placebo 44%): 36%
subjects who had resumed a normal level of KCPT performance ([4]; PM test, placebo 63%, P<0.08): 86%
subjects with omission errors on the KCPT ([4]; afternoon, placebo 37%): 14%
ANAM Math Test throughput improvement relative to baseline ([5]; AM test, placebo 6%, Group x Session P<0.07): 15%
ANAM Math Test throughput improvement relative to baseline ([5]; PM test, placebo 4%): 11%
more correct responses per minute (Matching to Sample throughput) [6]: 4.9 correct responses per minute
mean accuracy on the Running Memory Test ([7]; afternoon (PM) test, placebo 91%): 96%
Running Memory accuracy ([7]; stable across all three sessions (baseline, AM, PM), 14 subjects, Group x Session P=0.036, placebo dropped 95% to 91%): approximately 96%
self-reported fatigue and activity level, difference between NADH and placebo groups [8]: no significant differences
more problems correctly completed per minute vs. baseline (Shifting Attention Test throughput) ([9]; AM test vs baseline, placebo 6.8, Group x Session P<0.05): 13.2 problems per minute
Shifting Attention Test: Instruction Condition accuracy ([9]; AM test, 92.5% at baseline, placebo 93% to 91%): 95%
increase of Mark Numbers Test Total Score ([10]; PM test, placebo 19.2 points, P=0.011): 77.5 points
decrease of secondary task reaction time, Mark Numbers Test ([10]; baseline to AM, placebo increased by 0.44 seconds, P=0.016): 0.15 s
adverse effects attributable to treatment (human beings): no adverse effects
stability at pHs below 7 (Stability at acidic pH): very unstable

Reference: patent US20030021772A1 (priority 2001, published 2003)
